Patent US10597388B2, “Pyridazinone herbicides” (FMC CORPORATION, priority 2014, dated 2020)

Experiments:
Assay type in all cases: in vivo
[1] = test system: nutsedge, yellow (yellow nutsedge, Cyperus esculentus); assay: Test C greenhouse herbicide test, pre- and postemergence
Procedure, shortened: (§1)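 Percent-control ratings (0 none, 100 complete) came from visual comparison with controls held alongside in the greenhouse for 13–15 d. Treatments covered soil application at sowing and foliar application to young plants 2–18 cm tall.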

[2] = test system: wheat (winter wheat, Triticum aestivum); assay: as above
Procedure, shortened: as §1

[3] = test system: barnyardgrass (Echinochloa crus-galli); assay: as above
Procedure, shortened: as §1

[4] = test system: galium (catchweed bedstraw, Galium aparine); assay: as above
Procedure, shortened: as §1

[5] = test system: blackgrass (Alopecurus myosuroides); assay: Test A greenhouse herbicide test, postemergence; details: for Plant response rating, Blackgrass: 125 g ai/ha, visual rating after approx. 10 d, 0 to 100 scale (0 no effect, 100 complete control); for Blackgrass plant response rating: 500 g ai/ha, 0 to 100 scale, 0 is no effect, 100 is complete control
Procedure, shortened: (§2)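 Seedlings in a loam soil and sand mix received formulated compound postemergence at the one- to two-leaf stage. Greenhouse holding lasts approximately 10 d, then injury is scored visually relative to untreated plants, 0 meaning no effect and 100 complete control.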

[6] = test system: galium (catchweed bedstraw, Galium aparine); assay: Test A greenhouse herbicide test, postemergence; details: for Plant response rating, Galium: 125 g ai/ha, visual rating after approx. 10 d, 0 to 100 scale (0 no effect, 100 complete control); for Galium plant response rating: 500 g ai/ha, 0 to 100 scale, 0 is no effect, 100 is complete control
Procedure, shortened: as §2

[7] = test system: ragweed (common ragweed, Ambrosia elatior); assay: Test A greenhouse herbicide test, pre- and postemergence
Procedure, shortened: (§3)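 Visual injury ratings, 0 (no effect) to 100 (complete control), versus untreated plants after roughly 10 d in a greenhouse. Compounds, formulated in a surfactant-containing non-phytotoxic solvent, were sprayed on loam–sand soil after sowing (pre) or on one- to two-leaf plants 2–10 cm tall (post).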

[8] = test system: foxtail, giant (giant foxtail, Setaria faberii); assay: as above
Procedure, shortened: as §3

[9] = test system: barnyardgrass (Echinochloa crus-galli); assay: as above
Procedure, shortened: as §3

corn (Zea mays) = assay: as above; details: Postemergence; for Plant response rating, Corn: 125 g ai/ha, visual rating after approx. 10 d, 0 to 100 scale (0 no effect, 100 complete control); for Corn plant response rating: 500 g ai/ha, 0 to 100 scale, 0 is no effect, 100 is complete control
Procedure, shortened: as §3

[10] = test system: pigweed (Amaranthus retroflexus); assay: as above
Procedure, shortened: as §3

[11] = Postemergence, 31 g ai/ha, 0 to 100 scale (0 no effect, 100 complete control)
[12] = Postemergence, 250 g ai/ha, scale 0 to 100, 0 no effect, 100 complete control, 13 to 15 d
[13] = Preemergence, 31 g ai/ha, scale 0 to 100, 0 is no effect, 100 is complete control
[14] = Preemergence, 62 g ai/ha, scale 0 to 100, 0 is no effect, 100 is complete control
[15] = Preemergence, 125 g ai/ha, scale 0 to 100, 0 is no effect, 100 is complete control
[16] = Preemergence, 250 g ai/ha, scale 0 to 100 (0 no effect, 100 complete control)
[17] = postemergence, 62 g ai/ha, scale 0 to 100, 0 no effect, 100 complete control
[18] = Postemergence, 125 g ai/ha, scale 0 to 100, 0 is no effect, 100 is complete control
[19] = Postemergence, 125 g ai/ha, visual rating after approx. 10 d, 0 to 100 scale (0 no effect, 100 complete control)
[20] = Postemergence, 500 g ai/ha, 0 to 100 scale, 0 is no effect, 100 is complete control
[21] = Preemergence, 125 g ai/ha, 0 to 100 scale where 0 is no effect and 100 is complete control
[22] = Preemergence, 500 g ai/ha, 0 to 100 scale, 0 no effect, 100 complete control

CC(=O)Oc1c(C)nn(C)c(=O)c1-c1c(C)sc2c(C)cc(C)cc12 [Compound 27]
Nutsedge, Yellow plant response rating [1, 11]: 85
Plant response rating, Nutsedge, Yellow [1, 12]: 95
Plant response rating, Nutsedge, Yellow [1, 13]: 70
Plant response rating, Nutsedge, Yellow [1, 14]: 90
Plant response rating, Nutsedge, Yellow [1, 15]: 90
Nutsedge, Yellow plant response rating [1, 16]: 95
Nutsedge, Yellow plant response rating [1, 17]: 80
Wheat plant response rating [2, 11]: 0
Plant response rating, Wheat [2, 18]: 5
Plant response rating, Wheat [2, 12]: 5
Plant response rating, Wheat [2, 14]: 0
Plant response rating, Wheat [2, 15]: 0
Wheat plant response rating [2, 16]: 10
Wheat plant response rating [2, 17]: 0
Barnyardgrass plant response rating [3, 11]: 15
Plant response rating, Barnyardgrass [3, 18]: 25
Plant response rating, Barnyardgrass [3, 12]: 50
Plant response rating, Barnyardgrass [3, 13]: 55
Plant response rating, Barnyardgrass [3, 14]: 80
Plant response rating, Barnyardgrass [3, 15]: 90
Barnyardgrass plant response rating [3, 16]: 90
Barnyardgrass plant response rating [3, 17]: 20
Galium plant response rating [4, 11]: 100
Plant response rating, Galium [4, 18]: 100
Plant response rating, Galium [4, 12]: 100
Plant response rating, Galium [4, 13]: 90
Plant response rating, Galium [4, 14]: 95
Plant response rating, Galium [4, 15]: 95
Galium plant response rating [4, 16]: 95
Galium plant response rating [4, 17]: 100
Plant response rating, Blackgrass [5]: 90
Blackgrass plant response rating [5]: 90
Plant response rating, Galium [6]: 100
Galium plant response rating [6]: 100
Plant response rating, Ragweed [7, 19]: 100
Ragweed plant response rating [7, 20]: 100
Ragweed plant response rating [7, 21]: 90
Plant response rating, Ragweed [7, 22]: 100
Plant response rating, Foxtail, Giant [8, 19]: 90
Foxtail, Giant plant response rating [8, 20]: 90
Foxtail, Giant plant response rating [8, 21]: 90
Plant response rating, Foxtail, Giant [8, 22]: 100
Plant response rating, Barnyardgrass [9, 19]: 90
Barnyardgrass plant response rating [9, 20]: 90
Barnyardgrass plant response rating [9, 21]: 90
Plant response rating, Barnyardgrass [9, 22]: 100
Plant response rating, Corn (corn (Zea mays)): 0
Corn plant response rating (corn (Zea mays)): 20
Plant response rating, Pigweed [10, 19]: 90
Pigweed plant response rating [10, 20]: 100
Pigweed plant response rating [10, 21]: 100
Plant response rating, Pigweed [10, 22]: 100

CCC(=O)Oc1c(C)nn(C)c(=O)c1-c1c(C)sc2c(C)cc(C)cc12 [Compound 28]
Nutsedge, Yellow plant response rating [1, 11]: 75
Plant response rating, Nutsedge, Yellow [1, 18]: 85
Plant response rating, Nutsedge, Yellow [1, 12]: 90
Plant response rating, Nutsedge, Yellow [1, 13]: 50
Plant response rating, Nutsedge, Yellow [1, 14]: 75
Plant response rating, Nutsedge, Yellow [1, 15]: 85
Nutsedge, Yellow plant response rating [1, 16]: 70
Nutsedge, Yellow plant response rating [1, 17]: 85
Wheat plant response rating [2, 11]: 0
Plant response rating, Wheat [2, 18]: 0
Plant response rating, Wheat [2, 12]: 5
Plant response rating, Wheat [2, 14]: 0
Plant response rating, Wheat [2, 15]: 0
Wheat plant response rating [2, 16]: 10
Wheat plant response rating [2, 17]: 0
Barnyardgrass plant response rating [3, 11]: 20
Plant response rating, Barnyardgrass [3, 18]: 35
Plant response rating, Barnyardgrass [3, 12]: 40
Plant response rating, Barnyardgrass [3, 13]: 45
Plant response rating, Barnyardgrass [3, 14]: 75
Plant response rating, Barnyardgrass [3, 15]: 90
Barnyardgrass plant response rating [3, 16]: 95
Barnyardgrass plant response rating [3, 17]: 25
Galium plant response rating [4, 11]: 100
Plant response rating, Galium [4, 18]: 100
Plant response rating, Galium [4, 12]: 100
Plant response rating, Galium [4, 13]: 95
Plant response rating, Galium [4, 14]: 95
Plant response rating, Galium [4, 15]: 95
Galium plant response rating [4, 16]: 95
Galium plant response rating [4, 17]: 100
Plant response rating, Blackgrass [5]: 90
Blackgrass plant response rating [5]: 90
Plant response rating, Galium [6]: 100
Galium plant response rating [6]: 100
Plant response rating, Ragweed [7, 19]: 80
Ragweed plant response rating [7, 20]: 100
Ragweed plant response rating [7, 21]: 90
Plant response rating, Ragweed [7, 22]: 90
Plant response rating, Foxtail, Giant [8, 19]: 90
Foxtail, Giant plant response rating [8, 20]: 90
Foxtail, Giant plant response rating [8, 21]: 100
Plant response rating, Foxtail, Giant [8, 22]: 100
Plant response rating, Barnyardgrass [9, 19]: 80
Barnyardgrass plant response rating [9, 20]: 90
Barnyardgrass plant response rating [9, 21]: 90
Plant response rating, Barnyardgrass [9, 22]: 90
Plant response rating, Corn (corn (Zea mays)): 0
Corn plant response rating (corn (Zea mays)): 20
Plant response rating, Pigweed [10, 19]: 90
Pigweed plant response rating [10, 20]: 90
Pigweed plant response rating [10, 21]: 100
Plant response rating, Pigweed [10, 22]: 100

COc1nn(C)c(=O)c(-c2c(C)sc3ccccc23)c1O [Compound 33]
Nutsedge, Yellow plant response rating [1, 11]: 5
Plant response rating, Nutsedge, Yellow [1, 18]: 45
Plant response rating, Nutsedge, Yellow [1, 12]: 65
Nutsedge, Yellow plant response rating [1, 17]: 15
Wheat plant response rating [2, 11]: 0
Plant response rating, Wheat [2, 18]: 0
Plant response rating, Wheat [2, 12]: 0
Wheat plant response rating [2, 17]: 0
Barnyardgrass plant response rating [3, 11]: 25
Plant response rating, Barnyardgrass [3, 18]: 50
Plant response rating, Barnyardgrass [3, 12]: 80
Barnyardgrass plant response rating [3, 17]: 25
Galium plant response rating [4, 11]: 90
Plant response rating, Galium [4, 18]: 95
Plant response rating, Galium [4, 12]: 95
Galium plant response rating [4, 17]: 90
Plant response rating, Blackgrass [5]: 10
Blackgrass plant response rating [5]: 40
Plant response rating, Galium [6]: 90
Galium plant response rating [6]: 100
Plant response rating, Ragweed [7, 19]: 90
Ragweed plant response rating [7, 20]: 90
Ragweed plant response rating [7, 21]: 80
Plant response rating, Ragweed [7, 22]: 100
Plant response rating, Foxtail, Giant [8, 19]: 40
Foxtail, Giant plant response rating [8, 20]: 90
Foxtail, Giant plant response rating [8, 21]: 50
Plant response rating, Foxtail, Giant [8, 22]: 70
Plant response rating, Barnyardgrass [9, 19]: 40
Barnyardgrass plant response rating [9, 20]: 90
Barnyardgrass plant response rating [9, 21]: 20
Plant response rating, Barnyardgrass [9, 22]: 90
Plant response rating, Corn (corn (Zea mays)): 0
Corn plant response rating (corn (Zea mays)): 10
Plant response rating, Pigweed [10, 19]: 40
Pigweed plant response rating [10, 20]: 70
Pigweed plant response rating [10, 21]: 20
Plant response rating, Pigweed [10, 22]: 20

COc1nn(C)c(=O)c(-c2c(C)ccc3ccccc23)c1OC(=O)OC(C)C [Compound 36]
Nutsedge, Yellow plant response rating [1, 11]: 20
Plant response rating, Nutsedge, Yellow [1, 18]: 55
Plant response rating, Nutsedge, Yellow [1, 12]: 65
Plant response rating, Nutsedge, Yellow [1, 13]: 10
Plant response rating, Nutsedge, Yellow [1, 14]: 20
Plant response rating, Nutsedge, Yellow [1, 15]: 20
Nutsedge, Yellow plant response rating [1, 16]: 65
Nutsedge, Yellow plant response rating [1, 17]: 40
Wheat plant response rating [2, 11]: 0
Plant response rating, Wheat [2, 18]: 0
Plant response rating, Wheat [2, 12]: 5
Plant response rating, Wheat [2, 13]: 0
Plant response rating, Wheat [2, 14]: 0
Plant response rating, Wheat [2, 15]: 0
Wheat plant response rating [2, 16]: 0
Wheat plant response rating [2, 17]: 0
Barnyardgrass plant response rating [3, 11]: 15
Plant response rating, Barnyardgrass [3, 18]: 35
Plant response rating, Barnyardgrass [3, 12]: 40
Plant response rating, Barnyardgrass [3, 13]: 10
Plant response rating, Barnyardgrass [3, 14]: 25
Plant response rating, Barnyardgrass [3, 15]: 65
Barnyardgrass plant response rating [3, 16]: 70
Barnyardgrass plant response rating [3, 17]: 25
Galium plant response rating [4, 11]: 90
Plant response rating, Galium [4, 18]: 95
Plant response rating, Galium [4, 12]: 95
Plant response rating, Galium [4, 13]: 100
Plant response rating, Galium [4, 14]: 100
Plant response rating, Galium [4, 15]: 100
Galium plant response rating [4, 16]: 100
Galium plant response rating [4, 17]: 95
Plant response rating, Blackgrass [5]: 60
Blackgrass plant response rating [5]: 80
Plant response rating, Galium [6]: 100
Galium plant response rating [6]: 100
Plant response rating, Ragweed [7, 19]: 90
Ragweed plant response rating [7, 20]: 90
Ragweed plant response rating [7, 21]: 80
Plant response rating, Ragweed [7, 22]: 90
Plant response rating, Foxtail, Giant [8, 19]: 80
Foxtail, Giant plant response rating [8, 20]: 90
Foxtail, Giant plant response rating [8, 21]: 80
Plant response rating, Foxtail, Giant [8, 22]: 90
Plant response rating, Barnyardgrass [9, 19]: 50
Barnyardgrass plant response rating [9, 20]: 80
Barnyardgrass plant response rating [9, 21]: 0
Plant response rating, Barnyardgrass [9, 22]: 30
Plant response rating, Corn (corn (Zea mays)): 20
Corn plant response rating (corn (Zea mays)): 40
Plant response rating, Pigweed [10, 19]: 90
Pigweed plant response rating [10, 20]: 90
Pigweed plant response rating [10, 21]: 100
Plant response rating, Pigweed [10, 22]: 100
